Literature values in patent US11224632B2 (priority 2016, dated 2022).

Molecular target: N-type calcium channel (Homo sapiens, UniProt Q00975)
Settings: in vivo; cited from earlier work

Chain of N-type calcium channel (Q00975 whole entry, looked up): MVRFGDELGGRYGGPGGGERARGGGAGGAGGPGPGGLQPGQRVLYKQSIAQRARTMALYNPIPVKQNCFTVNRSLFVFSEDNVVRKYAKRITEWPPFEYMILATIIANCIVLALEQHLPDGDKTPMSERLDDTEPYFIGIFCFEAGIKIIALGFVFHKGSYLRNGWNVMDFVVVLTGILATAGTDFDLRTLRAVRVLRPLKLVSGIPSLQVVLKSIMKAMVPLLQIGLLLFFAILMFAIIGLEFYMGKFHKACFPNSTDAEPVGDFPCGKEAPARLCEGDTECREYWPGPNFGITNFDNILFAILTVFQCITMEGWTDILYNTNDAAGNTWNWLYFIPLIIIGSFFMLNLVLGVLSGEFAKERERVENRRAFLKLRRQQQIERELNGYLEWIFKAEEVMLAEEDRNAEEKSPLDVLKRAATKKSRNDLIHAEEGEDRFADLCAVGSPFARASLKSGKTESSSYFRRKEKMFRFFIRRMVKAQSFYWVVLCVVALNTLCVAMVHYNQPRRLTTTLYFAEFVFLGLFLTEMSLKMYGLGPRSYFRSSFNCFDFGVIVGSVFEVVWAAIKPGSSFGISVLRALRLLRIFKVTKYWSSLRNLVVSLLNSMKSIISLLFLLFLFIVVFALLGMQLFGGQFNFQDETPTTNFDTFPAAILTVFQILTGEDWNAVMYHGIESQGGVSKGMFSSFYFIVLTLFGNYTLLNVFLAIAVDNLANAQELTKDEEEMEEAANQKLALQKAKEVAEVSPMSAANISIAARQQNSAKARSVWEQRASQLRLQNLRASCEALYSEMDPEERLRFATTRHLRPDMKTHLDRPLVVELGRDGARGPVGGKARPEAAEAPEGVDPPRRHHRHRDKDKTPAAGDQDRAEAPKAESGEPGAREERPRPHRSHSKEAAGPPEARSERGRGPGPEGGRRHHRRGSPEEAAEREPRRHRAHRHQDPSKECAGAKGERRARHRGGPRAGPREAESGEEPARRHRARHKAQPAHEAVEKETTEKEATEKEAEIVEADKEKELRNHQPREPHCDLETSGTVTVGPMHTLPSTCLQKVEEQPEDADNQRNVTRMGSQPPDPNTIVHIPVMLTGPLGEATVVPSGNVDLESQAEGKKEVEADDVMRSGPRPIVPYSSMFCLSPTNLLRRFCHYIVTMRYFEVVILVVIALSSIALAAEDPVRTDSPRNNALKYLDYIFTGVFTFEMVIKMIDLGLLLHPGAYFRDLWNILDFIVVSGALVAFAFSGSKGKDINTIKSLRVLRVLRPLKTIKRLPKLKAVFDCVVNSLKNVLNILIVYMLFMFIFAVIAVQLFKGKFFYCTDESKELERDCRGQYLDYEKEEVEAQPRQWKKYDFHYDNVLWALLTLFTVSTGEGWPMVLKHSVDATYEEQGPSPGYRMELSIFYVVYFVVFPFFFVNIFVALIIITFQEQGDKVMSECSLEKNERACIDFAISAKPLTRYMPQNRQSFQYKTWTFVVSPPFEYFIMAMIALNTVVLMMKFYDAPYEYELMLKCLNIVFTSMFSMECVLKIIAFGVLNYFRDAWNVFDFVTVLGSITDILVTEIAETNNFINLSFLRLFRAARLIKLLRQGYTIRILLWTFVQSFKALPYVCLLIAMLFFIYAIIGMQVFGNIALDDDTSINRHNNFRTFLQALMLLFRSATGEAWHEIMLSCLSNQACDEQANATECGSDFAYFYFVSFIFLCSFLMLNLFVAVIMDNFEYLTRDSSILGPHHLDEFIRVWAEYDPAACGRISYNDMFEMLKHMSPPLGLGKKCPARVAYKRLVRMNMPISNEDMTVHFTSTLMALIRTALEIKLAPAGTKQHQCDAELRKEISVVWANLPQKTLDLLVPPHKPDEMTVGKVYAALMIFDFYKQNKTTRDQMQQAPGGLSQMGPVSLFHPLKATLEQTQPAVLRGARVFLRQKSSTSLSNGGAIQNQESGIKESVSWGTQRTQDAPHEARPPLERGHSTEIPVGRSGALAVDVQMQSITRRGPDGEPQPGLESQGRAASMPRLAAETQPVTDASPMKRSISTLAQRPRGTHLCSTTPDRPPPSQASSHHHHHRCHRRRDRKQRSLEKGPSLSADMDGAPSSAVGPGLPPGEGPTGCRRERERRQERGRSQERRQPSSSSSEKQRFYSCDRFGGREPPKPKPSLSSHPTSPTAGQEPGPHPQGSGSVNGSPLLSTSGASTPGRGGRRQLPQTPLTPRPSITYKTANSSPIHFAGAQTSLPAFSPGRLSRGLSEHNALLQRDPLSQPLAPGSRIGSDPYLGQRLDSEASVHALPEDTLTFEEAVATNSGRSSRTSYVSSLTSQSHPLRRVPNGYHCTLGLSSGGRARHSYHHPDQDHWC

Compound: CSCC[C@@H]1NC(=O)[C@H](CC(C)C)NC(=O)[C@H](CCCNC(=N)N)NC(=O)[C@H](CO)NC(=O)[C@@H]2CSSC[C@@H]3NC(=O)[C@H](CO)NC(=O)CNC(=O)[C@H]([C@@H](C)O)NC(=O)[C@H](CSSC[C@H](N)C(=O)N[C@@H](CCCCN)C(=O)NCC(=O)N[C@@H](CCCCN)C(=O)NCC(=O)N[C@@H](C)C(=O)N[C@@H](CCCCN)C(=O)N2)NC(=O)[C@H](CSSC[C@@H](C(N)=O)NC(=O)[C@H](CCCCN)NC(=O)CNC(=O)[C@H](CO)NC(=O)[C@H](CCCNC(=N)N)NC3=O)NC(=O)[C@H](CC(=O)O)NC(=O)[C@H](Cc2ccc(O)cc2)NC1=O [ziconotide]
- patients with severe CNS adverse effects: 88%
